± gives the expanded uncertainty stated by the source.
Assay: wn = mass fraction of the nth substance listed
Conditions: 313.15 K; 101 kPa; Liquid; Vibrating tube method; w1 = 0.15

Point of comparison: OCCNCCO [diethanolamine] + O, mass density 1009.39 ± 0.046 kg/m3. Against it:
- CC(O)CNCC(C)O (stereo unspecified) [N-(2-hydroxypropyl)-2-hydroxy-1-propanamine] + O — lower, 1001.24 ± 0.062 kg/m3

Same assay, conditions: 313.15 K; 101 kPa; Liquid; Vibrating tube method; w1 = 0.2

Point of comparison: OCCNCCO [diethanolamine] + O, mass density 1015.05 ± 0.05 kg/m3. Against it:
- CC(O)CN (stereo unspecified) [1-amino-2-propanol] + O — lower, 994.489 ± 0.078 kg/m3
- CC(O)CNCC(C)O (stereo unspecified) [N-(2-hydroxypropyl)-2-hydroxy-1-propanamine] + O — lower, 1004.14 ± 0.08 kg/m3

Same assay, conditions: 313.15 K; 101 kPa; Liquid; Vibrating tube method; w1 = 0.25

Point of comparison: OCCNCCO [diethanolamine] + O, mass density 1020.89 ± 0.053 kg/m3. Against it:
- CC(O)CN (stereo unspecified) [1-amino-2-propanol] + O — lower, 995.218 ± 0.098 kg/m3
- CC(O)CNCC(C)O (stereo unspecified) [N-(2-hydroxypropyl)-2-hydroxy-1-propanamine] + O — lower, 1007.23 ± 0.1 kg/m3

Same assay, conditions: 318.15 K; 101 kPa; Liquid; Concentric cylinders viscometry; w1 = 0.05

Point of comparison: CC(O)CNCC(C)O (stereo unspecified) [N-(2-hydroxypropyl)-2-hydroxy-1-propanamine] + O, viscosity 0.7442 ± 0.0065 mPa·s. Against it:
- CC(O)CN (stereo unspecified) [1-amino-2-propanol] + O — lower, 0.7225 ± 0.0064 mPa·s
- OCCNCCO [diethanolamine] + O — lower, 0.7137 ± 0.0064 mPa·s

Same assay, conditions: 318.15 K; 101 kPa; Liquid; Concentric cylinders viscometry; w1 = 0.1

Point of comparison: CC(O)CNCC(C)O (stereo unspecified) [N-(2-hydroxypropyl)-2-hydroxy-1-propanamine] + O, viscosity 0.8856 ± 0.0069 mPa·s. Against it:
- CC(O)CN (stereo unspecified) [1-amino-2-propanol] + O — lower, 0.8362 ± 0.0068 mPa·s
- OCCNCCO [diethanolamine] + O — lower, 0.8307 ± 0.0067 mPa·s

Same assay, conditions: 318.15 K; 101 kPa; Liquid; Concentric cylinders viscometry; w1 = 0.15

Point of comparison: CC(O)CNCC(C)O (stereo unspecified) [N-(2-hydroxypropyl)-2-hydroxy-1-propanamine] + O, viscosity 1.095 ± 0.0076 mPa·s. Against it:
- CC(O)CN (stereo unspecified) [1-amino-2-propanol] + O — lower, 0.9756 ± 0.0073 mPa·s
- OCCNCCO [diethanolamine] + O — lower, 0.948 ± 0.007 mPa·s

Same assay, conditions: 318.15 K; 101 kPa; Liquid; Concentric cylinders viscometry; w1 = 0.2

Point of comparison: OCCNCCO [diethanolamine] + O, viscosity 1.161 ± 0.0076 mPa·s. Against it:
- CC(O)CN (stereo unspecified) [1-amino-2-propanol] + O — within error, 1.155 ± 0.008 mPa·s
- CC(O)CNCC(C)O (stereo unspecified) [N-(2-hydroxypropyl)-2-hydroxy-1-propanamine] + O — higher, 1.313 ± 0.0086 mPa·s

Same assay, conditions: 318.15 K; 101 kPa; Liquid; Concentric cylinders viscometry; w1 = 0.25

Point of comparison: CC(O)CNCC(C)O (stereo unspecified) [N-(2-hydroxypropyl)-2-hydroxy-1-propanamine] + O, viscosity 1.633 ± 0.01 mPa·s. Against it:
- CC(O)CN (stereo unspecified) [1-amino-2-propanol] + O — lower, 1.384 ± 0.0092 mPa·s
- OCCNCCO [diethanolamine] + O — lower, 1.411 ± 0.0085 mPa·s

Same assay, conditions: 318.15 K; 101 kPa; Liquid; Vibrating tube method; w1 = 0.05

Point of comparison: CC(O)CN (stereo unspecified) [1-amino-2-propanol] + O, mass density 991.399 ± 0.043 kg/m3. Against it:
- CC(O)CNCC(C)O (stereo unspecified) [N-(2-hydroxypropyl)-2-hydroxy-1-propanamine] + O — higher, 993.508 ± 0.043 kg/m3
- OCCNCCO [diethanolamine] + O — higher, 996.373 ± 0.042 kg/m3

Same assay, conditions: 318.15 K; 101 kPa; Liquid; Vibrating tube method; w1 = 0.1

Point of comparison: CC(O)CN (stereo unspecified) [1-amino-2-propanol] + O, mass density 991.552 ± 0.051 kg/m3. Against it:
- CC(O)CNCC(C)O (stereo unspecified) [N-(2-hydroxypropyl)-2-hydroxy-1-propanamine] + O — higher, 996.055 ± 0.051 kg/m3
- OCCNCCO [diethanolamine] + O — higher, 1001.71 ± 0.042 kg/m3

Same assay, conditions: 318.15 K; 101 kPa; Liquid; Vibrating tube method; w1 = 0.15

Point of comparison: CC(O)CN (stereo unspecified) [1-amino-2-propanol] + O, mass density 991.681 ± 0.063 kg/m3. Against it:
- CC(O)CNCC(C)O (stereo unspecified) [N-(2-hydroxypropyl)-2-hydroxy-1-propanamine] + O — higher, 998.951 ± 0.062 kg/m3
- OCCNCCO [diethanolamine] + O — higher, 1007.2 ± 0.046 kg/m3

Same assay, conditions: 318.15 K; 101 kPa; Liquid; Vibrating tube method; w1 = 0.2

Point of comparison: CC(O)CN (stereo unspecified) [1-amino-2-propanol] + O, mass density 991.989 ± 0.079 kg/m3. Against it:
- CC(O)CNCC(C)O (stereo unspecified) [N-(2-hydroxypropyl)-2-hydroxy-1-propanamine] + O — higher, 1001.71 ± 0.078 kg/m3
- OCCNCCO [diethanolamine] + O — higher, 1012.78 ± 0.049 kg/m3

Same assay, conditions: 318.15 K; 101 kPa; Liquid; Vibrating tube method; w1 = 0.25

Point of comparison: CC(O)CNCC(C)O (stereo unspecified) [N-(2-hydroxypropyl)-2-hydroxy-1-propanamine] + O, mass density 1004.62 ± 0.099 kg/m3. Against it:
- CC(O)CN (stereo unspecified) [1-amino-2-propanol] + O — lower, 992.514 ± 0.098 kg/m3
- OCCNCCO [diethanolamine] + O — higher, 1018.51 ± 0.053 kg/m3

Same assay, conditions: 323.15 K; 101 kPa; Liquid; Concentric cylinders viscometry; w1 = 0.05

Point of comparison: CC(O)CN (stereo unspecified) [1-amino-2-propanol] + O, viscosity 0.6617 ± 0.0062 mPa·s. Against it:
- CC(O)CNCC(C)O (stereo unspecified) [N-(2-hydroxypropyl)-2-hydroxy-1-propanamine] + O — higher, 0.6884 ± 0.0063 mPa·s
- OCCNCCO [diethanolamine] + O — within error, 0.653 ± 0.0062 mPa·s

Same assay, conditions: 323.15 K; 101 kPa; Liquid; Concentric cylinders viscometry; w1 = 0.1

Point of comparison: CC(O)CN (stereo unspecified) [1-amino-2-propanol] + O, viscosity 0.7617 ± 0.0066 mPa·s. Against it:
- CC(O)CNCC(C)O (stereo unspecified) [N-(2-hydroxypropyl)-2-hydroxy-1-propanamine] + O — higher, 0.8047 ± 0.0067 mPa·s
- OCCNCCO [diethanolamine] + O — within error, 0.7593 ± 0.0065 mPa·s

Same assay, conditions: 323.15 K; 101 kPa; Liquid; Concentric cylinders viscometry; w1 = 0.15

Point of comparison: OCCNCCO [diethanolamine] + O, viscosity 0.8599 ± 0.0067 mPa·s. Against it:
- CC(O)CN (stereo unspecified) [1-amino-2-propanol] + O — higher, 0.8864 ± 0.007 mPa·s
- CC(O)CNCC(C)O (stereo unspecified) [N-(2-hydroxypropyl)-2-hydroxy-1-propanamine] + O — higher, 0.9924 ± 0.0073 mPa·s

Same assay, conditions: 323.15 K; 101 kPa; Liquid; Concentric cylinders viscometry; w1 = 0.2

Point of comparison: CC(O)CN (stereo unspecified) [1-amino-2-propanol] + O, viscosity 1.039 ± 0.0076 mPa·s. Against it:
- CC(O)CNCC(C)O (stereo unspecified) [N-(2-hydroxypropyl)-2-hydroxy-1-propanamine] + O — higher, 1.171 ± 0.0081 mPa·s
- OCCNCCO [diethanolamine] + O — within error, 1.048 ± 0.0073 mPa·s

Same assay, conditions: 323.15 K; 101 kPa; Liquid; Concentric cylinders viscometry; w1 = 0.25

Point of comparison: CC(O)CN (stereo unspecified) [1-amino-2-propanol] + O, viscosity 1.231 ± 0.0085 mPa·s. Against it:
- CC(O)CNCC(C)O (stereo unspecified) [N-(2-hydroxypropyl)-2-hydroxy-1-propanamine] + O — higher, 1.438 ± 0.0094 mPa·s
- OCCNCCO [diethanolamine] + O — higher, 1.266 ± 0.008 mPa·s

Same assay, conditions: 323.15 K; 101 kPa; Liquid; Vibrating tube method; w1 = 0.05

Point of comparison: OCCNCCO [diethanolamine] + O, mass density 994.141 ± 0.043 kg/m3. Against it:
- CC(O)CN (stereo unspecified) [1-amino-2-propanol] + O — lower, 989.143 ± 0.043 kg/m3
- CC(O)CNCC(C)O (stereo unspecified) [N-(2-hydroxypropyl)-2-hydroxy-1-propanamine] + O — lower, 991.263 ± 0.044 kg/m3

— the NIST ThermoML archive (doi:10.1021/je300938w)
